Results from patent US5665769A, “Pharmaceutical composition for preventing and treating retinal diseases” (Senju Pharmaceuticals Co., Ltd., priority 1993, dated 1997).

Experiments:
retina (rat) = assay: Retinal peroxidation induced by intravitreous injection of ferrous sulfate in rats, retinal TBA values (Experiment 1 (B-1)); assay type: in vivo, SD rats; settings: 1.5% suspension, 30 mg/kg oral
Procedure: (B) In vivo experiment in rats by intravitreous injection of ferrous ion:
(B-1) Evaluation by retinal TBA values
Antioxidative effects of oral administration of a suspension of 2-O-octadecylascorbic acid (30 mg/kg) on the retinal peroxidation induced by intravitreous injection of ferrous sulfate in rats were examined.
Seven weeks old SD rats fasted from the previous day were divided into 2 groups. A 5% solution of gum arabic (control)(2 ml/kg) was administered orally to one group in 3 divided portions. A 1.5% suspension (2 ml/kg) of 2-O-octadecylascorbic acid (30 mg/kg) was administered orally to the other group in 3 divided portions. Two hours after the first administration, rats were anesthetized systemically with ketamine hydrochloride. A 5 mM solution (5 μl) of ferrous sulfate was injected intravitreously into each of the left eyes, and physiological saline (5 μl) was injected intravitreously into each of the right eyes. Each injection was carried out using a microsyringe. One and four hours after the injection, a suspension of 2-O-octadecylascorbic acid or a 5% solution of gum arabic were administered again. Two hours after the third administration (i.e. six hours after the injection of ferrous ion), the rats were sacrificed. The eyeballs were removed, retinal homogenates were prepared from the eyes, and the TBA values and protein were determined.

retina (ERG in rats) [1] = assay: ERG changes induced by intravitreous injection of ferrous sulfate in rats (Experiment 1 (B-2)); assay type: in vivo, SD rats; settings: 30 mg/kg oral
From the text: FIG. 1 is a graph showing the a-wave amplitude of ERG in rats after intravitreous injection of ferrous ion in Experiment 1 (B-2). The abscissa indicates time (hour) and the ordinate indicates percentage (%) relative to the initial amplitude. In FIGS. 1 to 5, the compound (I) is 2-O-octadecylascorbic acid. FIG. 2 is a graph showing the b-wave latency of ERG in rats after intravitreous injection of ferrous ion in Experiment 1 (B-2). The abscissa indicates time (hour) and the ordinate indicates percentage (%) relative to the initial amplitude. FIG. 3 is a graph showing the b-wave amplitude of ERG in rats after intravitreous injection of ferrous ion in Experiment 1 (B-2). The abscissa indicates time (hour) and the ordinate indicates percentage (%) relative to the initial amplitude. (B-2) Evaluation by Electroretinogram (hereinafter referred to as ERG) determination Effects of oral administration of 2-O-octadecylascorbic acid (30 mg/kg) on the changes of ERG induced by intravitreous injection of ferrous sulfate in rats were examined. Twelve SD rats (7 weeks old) were fasted from the previous day. A 7.5 mM ferrous sulfate (5 μl) solution was injected intravitreously into each of the left eyes. A 1.5% suspension of 2-O-octadecylascorbic acid (30 mg/kg) or a 5% solution of gum arabic (control) was firstly administered orally 2 hours before the ferrous ion injection, and thereafter administered three times every 3 hours and then three times every 5 hours. ERG was determined 6, 9 and 24 hours after the ferrous ion injection and evaluated for the latency and amplitude of a-wave and b-wave.

[2] = test system: bovine retinal homogenates; assay: Peroxidation of bovine retinal homogenate by light exposure in presence of hematoporphyrin, TBA value (Experiment 2 (A)); assay type: biochemical; settings: 10^-4 M
Procedure: (A) In vitro experiment using bovine retinal homogenates
Antioxidative effects of 2-O-octadecylascorbic acid on peroxidation caused by light exposure of bovine retinal homogenates in the presence of hematoporphyrin (hereinafter referred to as HPP) were examined.
(1) HPP (100 μM, dissolved in ethanol), 2-O-octadecylascorbic acid (10^-4 M) and water were added to a retinal homogenate prepared by the same manner as that of the above Experiment 1 (A) Method (1). The mixture was irradiated with a fluorescent lamp (daylight lamp, 15 W, 3000 lux) from 20 cm above for 1 hour. The final concentration of ethanol in the reaction mixture was adjusted to 2%.
(2) One hour after the light exposure, according to the same manner as that of the above Experiment 1 (A) Method (3), lipidperoxides were determined by the TBA reaction and proteins were determined using Bio-Rad Protein Assay Kit (trade name).

retinal rhodopsin = assay: Retinal light damage in rats, retinal rhodopsin amount (Experiment 2 (B-1)); assay type: in vivo; settings: for Amount of retinal rhodopsin: mean ± S.D.
Procedure: (B) In vivo experiment by light exposure in rats
(B-1) Evaluation by retinal pathological tissues and rhodopsin amount
Rats were subjected to dark adaptation for 72 hours. Then the rats were irradiated continuously for 12 hours using a green fluorescent lamp (10 W, 490-580 nm), the illumination intensity of which was adjusted to 2000 to 2400 lux. A suspension of 1.5% or 5.0% 2-O-octadecylascorbic acid was orally administered three times a day (90, 300 mg/kg/day) on the day of light exposure, and once a day (30, 100 mg/kg/day) after that. To the control group was administered 5.0% gum arabic solution (control) according to the same schedule. After completion of the light exposure, the rats were reared in a dark room and sacrificed on the 5th day. The right eyes were marked with ink in the upper part and fixed with 2% paraformaldehyde and 2% glutaraldehyde solutions. Histopathological evaluation was made using a light microscope and the thickness of retinae (thickness of retinal entire layer and outer nuclear layer) was measured. The left eyes were stored under freezing conditions at -20° C. for rhodopsin determination after removal of the cornea, lens and vitreous body.
Rhodopsin was determined as follows. Firstly, the optic cup was sliced under a red lamp in a dark room, and retinal homogenates were prepared using 0.1M phosphate buffer (pH 7.2). After centrifugation at 15,000 rpm for 15 minutes, the precipitation was treated with 4% potassium alum solution. After washing, rhodopsin was extracted with 1% Emulphogen BC-720 (trade mark). The absorbance at 500 nm was measured using the centrifuged supernatant as the sample. The sample was bleached by light exposure with a yellow lamp for 5 minutes. The absorbance at 500 nm was measured again. The rhodopsin amount was calculated from the difference between the absorbances before and after the bleach (molar absorption coefficient: 42,000).

retina (ERG in rats) [3] = assay: ERG in rats after light exposure for 3 days (Experiment 2 (B-2), Method 1); assay type: in vivo; settings: 5.0% suspension, oral 200 mg/kg/day on day of light exposure, 100 mg/kg/day other days; light 3 days
Procedure: FIG. 4 is a graph showing the b-wave amplitude of ERG in rats after light exposure for 3 days in Experiment 2 (B-2)(Method 1). The abscissa indicates time (day) after light exposure and the ordinate indicates b-wave amplitude (mv).
(B-2) Evaluation by ERG determination
Rats were subjected to dark adaptation for 24 hours. Continuous light exposure for 20 hours was repeated for 3 successive days using a green fluorescent lamp (490-580 nm), the illumination intensity of which was adjusted to 600 to 700 lux. ERG was measured for 3 successive days after dark adaptation for 2 hours after completion of everyday light exposure. After that, the rats were reared in a dark room, and ERG was measured on the 7th day after the light exposure, and evaluated for the amplitude of a-wave and b-wave and the latency of a-wave. From the day before the light exposure, a 5.0% 2-O-octadecylascorbic acid suspension or 5.0% gum arabic solution (control) was orally administered twice a day (200 mg/kg/day) on the day of the light exposure and once a day (100 mg/kg/day) on other days.

[4] = 9 hours after ferrous ion injection, compared to control

## CCCCCCCCCCCCCCCCCCOC1=C(O)[C@@H]([C@@H](O)CO)OC1=O [2-O-octadecylascorbic acid]
Retina (rat)
  increase in the TBA value of the retina induced by intravitreous injection of ferrous ion: significantly inhibited the increase in the TBA value of the retina
Retina (rat); left eye (ferrous sulfate injected), mean ± S.D., n=6, p < 0.01 vs control
  Retina: TBA value, left eye: 0.47 ± 0.11 nM malondialdehyde/mg protein
Retina (rat); right eye (physiological saline injected), mean ± S.D., n=6
  Retina: TBA value, right eye: 0.36 ± 0.06 nM malondialdehyde/mg protein
Retina (ERG in rats) [1]; [4]
  decrease of the amplitude of a-wave and b-wave: more marked tendency to inhibit the decrease of the amplitude of a-wave and b-wave
  delay of the b-wave latency: the delay of the b-wave latency was significantly inhibited
Retina (ERG in rats) [1]; 24 hours after ferrous ion injection, both groups
  recovery of amplitude: The amplitude was not recovered even in the determination after 24 hours
Retina (ERG in rats) [1]; from 6 hours after ferrous ion injection, both groups
  delay of the latency and decrease of the amplitude of a-wave and b-wave: strongly observed in both groups
[2]
  inhibitory effect on light-induced peroxidation: significant inhibitory effect was observed
[2]; HPP 100 μM, light 3000 lux 1 hour, mean ± S.D., n=3, p < 0.001 vs control
  Retina: TBA value: 1.31 ± 0.21 nM malondialdehyde/mg protein
Retinal rhodopsin; 1.5% suspension, n=5
  Amount of retinal rhodopsin: 0.51 ± 0.20 nM/eye
Retinal rhodopsin; 5.0% suspension, n=3
  Amount of retinal rhodopsin: 0.69 ± 0.14 nM/eye
Retinal rhodopsin; suspension administered groups
  decrease of the amount of rhodopsin by light exposure (in words): the tendency to inhibit the decrease of the amount of rhodopsin by light exposure was observed
Retina (ERG in rats) [3]
  decrease of the b-wave amplitude: the tendency to inhibit the decrease of the b-wave amplitude was observed
